Assay results reported in US12280046B2, “Melanocortin subtype-2 receptor (MC2R) antagonist for the treatment of disease” (Crinetics Pharmaceuticals, Inc., priority 2021, dated 2025).

Key:
[1] = system: plasma corticosterone in mice with ACTH-secreting AtT-20 cell tumors; assay: ACTH-secreting AtT-20 mouse pituitary cell tumor model, 14 days of daily oral dosing; format: in vivo; conditions: for suppression of plasma corticosterone: 2 hours after last dose, vs vehicle
Method: The ability of 14 days of daily oral administration of Compound 1 to suppress corticosterone in a mouse model of ACTH excess was evaluated.
Briefly, female Balb/c nude mice were subcutaneously implanted with AtT-20 corticotroph tumor cells in the rear flank (3 million cells/injection/animal) on Day 0. The no-tumor (NT) control group was injected with media only. When tumors became palpable on Day 21, mice were assigned to groups randomized for body weight, and 0, 15, 30 or 100 mg/kg/day of Compound 1. Compound 1 was orally administered for 14 days (Day 21 to Day 34).

[2] = system: serotonin 5-hydroxytryptamine 1B receptor (5-HT1B); assay: SafetyScreen panel: 5-HT1B; format: binding; conditions: 10 μM
Method: Compound 1 was tested at Eurofins Panlabs Discovery Services Taiwan, Ltd. for evaluation in their SafetyScreen™ panel of assays. This included selectivity assays at 87 targets including G-protein coupled receptors, nuclear receptors, other cell surface receptors, ion channels, enzymes, and transporters.

MC1R = target: T1, MC1R (Homo sapiens, UniProt Q01726); assay: Commercially available MC1R membrane binding assay; conditions: greater than highest concentration tested
T1 construct: purchased
Method: The selectivity over other human MCR subtypes was evaluated using commercially available MC1R, MC3R, MC4R, and MCSR membrane binding assays. The half maximal inhibitory concentration in the binding assays (IC50) were determined to be greater than the highest concentration tested, or >10,000 nM, >1000 nM, >10,000 nM and >1000 nM for MC1R, MC3R, MC4R and MCSR, respectively. Compound 1 is >2900-fold selective for MC2R versus the other human MCRs.

[3] = daily oral dosing over the course of the experiment

T1 sequence (Q01726 whole entry): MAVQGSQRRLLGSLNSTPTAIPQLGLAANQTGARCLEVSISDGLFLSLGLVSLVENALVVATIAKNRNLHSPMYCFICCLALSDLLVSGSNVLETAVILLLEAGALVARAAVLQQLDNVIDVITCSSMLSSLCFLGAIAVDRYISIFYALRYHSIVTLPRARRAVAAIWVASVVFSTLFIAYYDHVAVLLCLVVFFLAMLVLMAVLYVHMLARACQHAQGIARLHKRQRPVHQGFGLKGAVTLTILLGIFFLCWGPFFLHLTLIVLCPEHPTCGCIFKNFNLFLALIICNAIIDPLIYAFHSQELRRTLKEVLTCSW

IC50 (MC1R): > 10 µM
SMILES: CCOc1ccccc1-c1ccc(N2CCN(C(=O)C3(C(F)(F)F)CCC3)C[C@H]2CC)c(C(=O)N[C@@H]2CN3CCC2CC3)n1 [Compound 1, 6-(2-ethoxyphenyl)-3-((R)-2-ethyl-4-(1-(trifluoromethyl)cyclobutane-1-carbonyl)piperazin-1-yl)-N—((S)-quinuclidin-3-yl)picolinamide]
suppression of plasma corticosterone ([1]; 15 mg/kg/day): 73%
suppression of plasma corticosterone ([1]; 30 mg/kg/day): 88%
increase in ACTH levels ([1]; 100 mg/kg/day vs vehicle): 2.4 fold
suppression of plasma corticosterone ([1]; 100 mg/kg/day): 92%
body weight [1, 3]: no significant effect
tumor volume [1, 3]: no significant effect
inhibition/activity [2]: > 70%
